Assay results reported in patent publication US20220257552A1, “METHODS OF PRESCREENING AND TREATING BREAST CANCERS WITH SELECTIVE ANDROGEN RECEPTOR MODULATORS” (priority 2021, published 2022).

Legend:
[1] = Completed and ongoing clinical studies, tolerability; type: in vivo, human; details: single doses up to 100 mg, multiple doses up to 30 mg once daily up to 14 days
Description: These include: 1. Protocol G100401, a Phase 1 single ascending dose study in 96 healthy, young, male volunteers; 2. Protocol G100402, a Phase 1 multiple ascending dose study in 50 healthy, young, male volunteers, and 23 elderly male volunteers with truncal obesity; 3. Protocol G100503, a Phase 1 single dose pharmacokinetic study to assess the effect of a dosage regimen that simulates a sustained release formulation to an immediate release formulation in 18 healthy, young male volunteers and 18 postmenopausal women; 4. Protocol G100506, a Phase 1 single dose pharmacokinetic study to assess the relative bioavailability of a 3 mg hard shell capsule formulation to be used during continued clinical development and to assess the effect of food on the pharmacokinetics of the 3 mg softgel formulation in 27 healthy, young, male volunteers; 5. Protocol 006, a Phase 1 single dose and multiple dose pharmacokinetic study in 24 postmenopausal, Japanese women; 6. Protocol G200501, a Phase 2 study in 60 postmenopausal women and 60 elderly men to assess lean body mass and physical function; 7. Protocol 003, a Phase 1b study in 44 postmenopausal women; 8. Protocol G200502, a Phase 2b study in 159 men and postmenopausal women with cancer to assess lean body mass and physical function; 9.

HCI-13 tumors = assay: Affymetrix microarray of HCI-13 PDX tumors; parameters: species or system mice; details: mouse, in vivo
Protocol: RNA from tumors was extracted and verified qualitatively and quantitatively. Total RNA (200 ng/sample; n=4/group) from each sample was amplified and labeled using the WT Plus Kit from Affymetrix and processed according to Affymetrix protocol. The arrays (Human ST2.0, Affymetrix, Santa Clara, Calif.) were washed and stained on Affymetrix Fluidics station 450 and scanned on an Affymetrix GCS 3000 scanner.
Data from microarrays were normalized using Affymetrix Expression Console. Mean, Standard Deviation, and Variance were calculated across the groups. Fold Change from vehicle-treated samples was calculated, and a fold change of 1.5 was used as cutoff Student's t-test was used to determine the significance and a cutoff of p value<0.05 was used for significance discovery. False discovery rate was calculated using Benjamini & Hochberg method, and a cutoff for FDR<0.05 was used to create a significant differential expression list. The gene candidate list was loaded to Ingenuity Pathway Analysis and gene set enrichment analysis (GSEA) performed for further discovery. Microarray experiments were performed at the UTHSC Molecular Resources Center (MRC), and data analysis was performed by the UTHSC Molecular Bioinformatics (mBio) core facility.

MCF-7-GFP cells = type: cell-based, human
Description: Tumor microenvironment contains tumor epithelial cells, stromal cells, cancer-associated fibroblasts (CAFs), and endothelial cells. The collective function of these cells promotes the aggressive growth of tumors due to secretion of paracrine factors. The CAFs are important for the sustained growth of cancers, and they differ from normal fibroblasts in their capacity to secrete factors that promote proliferation of cancer cells. […] Medium was collected over a period of 10 days and pooled. CAFs were stained with SRB to evaluate the effect of AR ligands on proliferation.
Conditioned medium was replaced on days 4 and 7 and the cells were stained with SRB to measure viability.

MCF-7-AR cells = assay: MCF-7-AR xenograft in ovariectomized, estradiol-supplemented mice; type: in vivo
Protocol: Once tumors reached 100-200 mm^3, the animals were randomized and treated with vehicle or 30 mg/kg per day of Formula VIII. Tumor volumes and body weights were measured thrice weekly. At the end of 5 weeks of treatment, the animals were sacrificed, tumors weighed and stored for RNA and protein isolation and histology. * significance at P<0.05.
All animal protocols were approved by The University of Tennessee Health Science Center (UTHSC) Institutional Animal Care and Use Research Committee. Xenograft experiments were performed as previously published (Narayanan et al. (2014) PLoS One 9, e103202). Briefly, 3 million MCF-7 cells were suspended in 0.05 ml MEM+10% FBS and 0.05 ml Matrigel/nude mouse and were injected subcutaneously. Once the tumor size reached 100-200 mm^3, the animals were randomized and treated orally with the indicated drugs formulated in DMSO:PEG-300 (15:85). HCI-7, HCI-9, and HCI-13 PDXs were gifts kindly donated by Dr. Alana Welm (Huntsman Cancer Institute, Salt Lake City, Utah). HCI PDX tumor fragments (1 mm^3) were surgically implanted under the mammary fat pad in female NOD SCID Gamma (NSG) mice. Tumor volume was measured twice weekly for MCF-7 xenograft and once or twice weekly for HCI PDXs. At the end of the study, animals were sacrificed and tumors were excised, weighed, and stored for various analyses.

AR-LBD = AR-LBD (Homo sapiens, UniProt P10275); assay: Competitive radioligand binding with [3H]MIB; details: DHT = 1.0
MDA-MB-231-AR tumors = assay: Affymetrix microarray of MDA-MB-231-AR tumors; type: in vivo, mice
Protocol: RNA was extracted from MDA-MB-231-AR tumors (n=5/group) treated with vehicle or compound of Formula VIII. RNA was pooled and Affymetrix microarray was performed to determine the change in expression of gene signature.
Microarray Analysis was performed on RNA from MDA-MB-231-AR and MCF-7-AR tumors in order to identify and compare changes in gene expression in ER-negative (MDA-MB-231-AR; triple negative) an ER-positive (MCF-7-AR; triple positive) breast cancer tumors treated with a compound of Formula VIII (30 mg/kg/day p.o. for 4 weeks). Affymetrix analysis of the xenografts was done on pooled samples of the xenografts. The analysis included ˜70,000 sequences with ˜30,000 genes and variations thereof represented, as well as microRNA's. RNA was isolated and expression of genes was evaluated using microarray (Affymetrix Human Gene ST 2.0 array). Expression of genes in compound of Formula VIII-treated samples was compared with the expression in vehicle-treated samples.

Sequence of AR-LBD (P10275 669-900 limits assumed): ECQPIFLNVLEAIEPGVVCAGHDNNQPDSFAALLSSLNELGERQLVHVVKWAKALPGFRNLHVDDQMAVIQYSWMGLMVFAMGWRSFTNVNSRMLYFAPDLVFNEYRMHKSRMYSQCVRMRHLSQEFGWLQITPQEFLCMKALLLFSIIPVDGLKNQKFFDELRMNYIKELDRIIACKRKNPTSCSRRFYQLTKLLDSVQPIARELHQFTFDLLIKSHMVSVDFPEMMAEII

With `C[C@](O)(COc1ccc(C#N)cc1)C(=O)Nc1ccc(C#N)c(C(F)(F)F)c1` [Formula IX, (S)—N-(4-Cyano-3-(trifluoromethyl)phenyl)-3-(4-cyanophenoxy)-2-hydroxy-2-methylpropanamide] the tolerability [1] was “generally well-tolerated”, the “members of histone group inhibited” value (HCI-13 tumors) was “About 17” and the “proliferation of breast cancer CAFs” value (MCF-7-GFP cells) was “neither AR agonist, DHT and Formula IX, nor AR antagonist enzalutamide, affected the proliferation”. The “proliferation of MCF-7-GFP cells fed conditioned medium from treated CAFs” value (MCF-7-GFP cells; 10 days) was “inhibited the proliferation”.
With `C[C@](O)(COc1ccc(C#N)cc1)C(=O)Nc1ccc(C#N)c(Cl)c1` [Formula VIII, (S)—N-(3-chloro-4-cyanophenyl)-3-(4-cyanophenoxy)-2-hydroxy-2-methylpropanamide] the “growth inhibition of xenografts” value (MCF-7-AR cells; 30 mg/kg per day, 5 weeks) was “greater than 50%”, the uterus weight (MCF-7-AR cells; estrogen supplemented animals) was “inhibited” and the “relative binding affinities (RBAs) for AR” value (AR-LBD) was 0.314. The Aurora kinase expression (MDA-MB-231-AR tumors; Table 8) was “Decreased”, the “BUB1 S/T kinase expression” value (MDA-MB-231-AR tumors; Table 8) was “Decreased” and the CENPE expression (MDA-MB-231-AR tumors; Table 8) was “Decreased”. The EHMT2 expression (MDA-MB-231-AR tumors; Table 8) was “Decreased”, the ERCC1 expression (MDA-MB-231-AR tumors; Table 8) was “Decreased” and the IGFBP3 expression (MDA-MB-231-AR tumors; Table 8) was “Decreased”. The ITGA2 expression (MDA-MB-231-AR tumors; Table 8) was “Decreased”, the NQO1 expression (MDA-MB-231-AR tumors; Table 8) was “Increased” and the PARP1 expression (MDA-MB-231-AR tumors; Table 8) was “Decreased”. For the same compound, the POLD1 expression (MDA-MB-231-AR tumors; Table 8) was “Decreased”, the PTPRJ expression (MDA-MB-231-AR tumors; Table 8) was “Increased” and the β-Adrenoceptor2 expression (MDA-MB-231-AR tumors; Table 8) was “Decreased”. For the same compound, the FKBP51 induction (MDA-MB-231-AR tumors; Table 10) was “∞”, the IRS2 induction (MDA-MB-231-AR tumors; Table 10) was 4.40 Fold and the MUC1 induction (MDA-MB-231-AR tumors; Table 10) was 9 Fold. For the same compound, the PTGS2 induction (MDA-MB-231-AR tumors; Table 10) was 14 Fold, the SNAI2/SLUG induction (MDA-MB-231-AR tumors; Table 10) was 2.10 Fold and the “genes Up” value (MDA-MB-231-AR tumors; more than 2 fold vs vehicle) was 720.
